Data as given in PubChem BioAssay (NCI).
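GI50 = concentration required for 50% inhibition of growth. TGI is the concentration that stops growth completely.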

Tests used:
Assay in all cases: growth of human tumour cells (NCI), 384-well format
[1] = test system: 786-0 renal
[2] = test system: A498 renal
[3] = test system: A549 NSCLC
[4] = test system: ACHN renal
[5] = test system: BT-549 breast
[6] = test system: CAKI-1 renal
[7] = test system: CCRF-CEM leukemia
[8] = test system: COLO 205 colon
[9] = test system: DU-145 prostate
[10] = test system: EKVX NSCLC
[11] = test system: HCC-2998 colon
[12] = test system: HCT-116 colon
[13] = test system: HCT-15 colon
[14] = test system: HL-60(TB) leukemia
[15] = test system: HOP-62 NSCLC
[16] = test system: HOP-92 NSCLC
[17] = test system: HS 578T breast
[18] = test system: HT29 colon
[19] = test system: IGROV1 ovarian
[20] = test system: K-562 leukemia
[21] = test system: KM12 colon
[22] = test system: LOX IMVI melanoma
[23] = test system: M14 melanoma
[24] = test system: MALME-3M melanoma
[25] = test system: MCF7 breast
[26] = test system: MDA-MB-231 breast
[27] = test system: MDA-MB-435 melanoma
[28] = test system: MDA-MB-468 breast
[29] = test system: MOLT-4 leukemia
[30] = test system: NCI-H226 lung
[31] = test system: NCI-H23 lung
[32] = test system: NCI-H322M lung
[33] = test system: NCI-H460 NSCLC
[34] = test system: NCI-H522 lung
[35] = test system: NCI/ADR-RES ovarian
[36] = test system: OVCAR-3 ovarian
[37] = test system: OVCAR-4 ovarian
[38] = test system: OVCAR-5 ovarian
[39] = test system: OVCAR-8 ovarian
[40] = test system: PC-3 prostate
[41] = test system: RPMI-8226 leukemia
[42] = test system: RXF 393 renal
[43] = test system: SF-268 CNS
[44] = test system: SF-295 CNS
[45] = test system: SF-539 CNS
[46] = test system: SK-MEL-2 melanoma
[47] = test system: SK-MEL-28 melanoma
[48] = test system: SK-MEL-5 melanoma
[49] = test system: SK-OV-3 ovarian
[50] = test system: SN12C renal
[51] = test system: SNB-19 CNS
[52] = test system: SNB-75 CNS
[53] = test system: SR leukemia
[54] = test system: SW-620 colon
[55] = test system: T-47D breast
[56] = test system: TK-10 renal
[57] = test system: U251 glioblastoma
[58] = test system: UACC-257 melanoma
[59] = test system: UACC-62 melanoma
[60] = test system: UO-31 renal

CC(=O)Nc1cccc(-n2c(=O)n(C3CC3)c(=O)c3c(Nc4ccc(I)cc4F)n(C)c(=O)c(C)c32)c1
GI50 [1]: 1.2 µM | TGI [1]: 20.1 µM | GI50 [2]: 0.08 µM | TGI [2]: 4.52 µM | GI50 [3]: 0.0103 µM | TGI [3]: 4.68 µM | GI50 [4]: 0.576 µM | TGI [4]: 20.4 µM | GI50 [5]: 0.846 µM | TGI [5]: 18.3 µM | GI50 [6]: < 0.026 µM | TGI [6]: 12 µM | GI50 [7]: 3.32 µM | TGI [7]: 12.8 µM | GI50 [8]: < 0.01 µM | TGI [8]: < 0.0106 µM | GI50 [9]: 1.96 µM | TGI [9]: 44.4 µM | GI50 [10]: 0.309 µM | TGI [10]: 23.7 µM | GI50 [11]: < 0.01 µM | TGI [11]: < 0.0119 µM | GI50 [12]: < 0.01 µM | TGI [12]: 0.0787 µM | GI50 [13]: 0.238 µM | TGI [13]: 14.7 µM | GI50 [14]: < 0.01 µM | TGI [14]: < 0.01 µM | GI50 [15]: < 0.0113 µM | TGI [15]: 21.2 µM | GI50 [16]: < 0.0172 µM | TGI [16]: 0.123 µM | GI50 [17]: 1.5 µM | TGI [17]: 24.9 µM | GI50 [18]: < 0.01 µM | TGI [18]: 15 µM | GI50 [19]: < 0.01 µM | TGI [19]: 5.48 µM | GI50 [20]: 0.0265 µM | TGI [20]: 11.8 µM | GI50 [21]: < 0.01 µM | TGI [21]: 26.1 µM | GI50 [22]: < 0.01 µM | TGI [22]: 0.0443 µM | GI50 [23]: < 0.01 µM | TGI [23]: < 0.01 µM | GI50 [24]: < 0.01 µM | TGI [24]: < 0.01 µM | GI50 [25]: 7.68 µM | TGI [25]: 23.6 µM | GI50 [26]: < 0.0489 µM | TGI [26]: 1.99 µM | GI50 [27]: < 0.01 µM | TGI [27]: 16.5 µM | GI50 [28]: 5.03 µM | TGI [28]: 14.2 µM | GI50 [29]: 3.11 µM | TGI [29]: 12.3 µM | GI50 [30]: < 0.0432 µM | TGI [30]: 8.93 µM | GI50 [31]: < 0.01 µM | TGI [31]: 0.137 µM | GI50 [32]: < 0.0237 µM | TGI [32]: 3.6 µM | GI50 [33]: 3.88 µM | TGI [33]: > 40.9 µM | GI50 [34]: 4.33 µM | TGI [34]: 37.4 µM | GI50 [35]: 1.32 µM | TGI [35]: 8.35 µM | GI50 [36]: 4.65 µM | TGI [36]: 21.4 µM | GI50 [37]: 4.87 µM | TGI [37]: 26.9 µM | GI50 [38]: < 0.01 µM | TGI [38]: 25.5 µM | GI50 [39]: 2.88 µM | TGI [39]: 36.1 µM | GI50 [40]: > 35.7 µM | TGI [40]: > 59.5 µM | GI50 [41]: 0.423 µM | TGI [41]: 4.84 µM | TGI [42]: 1.44 µM | GI50 [43]: 7.21 µM | TGI [43]: > 56.4 µM | GI50 [44]: 23.1 µM | TGI [44]: > 86.2 µM | GI50 [45]: 0.0819 µM | TGI [45]: 11 µM | GI50 [46]: < 0.01 µM | TGI [46]: < 0.01 µM | GI50 [47]: < 0.01 µM | TGI [47]: < 0.01 µM | GI50 [48]: < 0.01 µM | TGI [48]: < 0.01 µM | TGI [49]: > 41.1 µM | GI50 [50]: 0.537 µM | TGI [50]: 46.4 µM | TGI [51]: > 62.1 µM | GI50 [52]: 0.115 µM | TGI [52]: 5.76 µM | GI50 [53]: 1.1 µM | TGI [53]: 5.65 µM | GI50 [54]: < 0.01 µM | TGI [54]: > 36 µM | GI50 [55]: > 25.1 µM | TGI [55]: > 100 µM | TGI [56]: > 45.6 µM | GI50 [57]: 0.076 µM | TGI [57]: 23.2 µM | GI50 [58]: < 0.01 µM | TGI [58]: < 0.01 µM | GI50 [59]: < 0.01 µM | GI50 [60]: 0.0541 µM | TGI [60]: 11.3 µM
